Non-standard residues stand in square brackets, D forms with d. Residues, ends and D or L forms follow the SMILES beside them. *: point of attachment. Shikimoyl = O=C(C1=C[C@@H](O)[C@@H](O)[C@H](O)C1)*; dPhe(4-Cl) = N[C@H](Cc1ccc(Cl)cc1)C(=O)O; d2Nal = N[C@H](Cc1ccc2ccccc2c1)C(=O)O; d(hCit) = NC(=O)NCCCC[C@@H](N)C(=O)O; Lys(iPr) = CC(C)NCCCC[C@H](N)C(=O)O; NMeY = CN[C@@H](Cc1ccc(O)cc1)C(=O)O; dCit = NC(=O)NCCC[C@@H](N)C(=O)O; d3Pal = N[C@H](Cc1cccnc1)C(=O)O; Isonicotinoyl = O=C(c1ccncc1)*; NMeL = CN[C@@H](CC(C)C)C(=O)O; Nicotinoyl = O=C(c1cccnc1)*; X1 = O=C([C@@H]1CCCO1)*; X6 = O=C(c1ccoc1)*; Sar = CNCC(=O)O

Usually Kb stands for the affinity of an antagonist, worked out from how it opposes an agonist.

This test deals with T1, LHRH (Rattus norvegicus, UniProt P30969).
T1 construct: endogenous in cells; host or cells: rat pituitary cells (own knowledge of the cited Haviv 1989 method)
T1 sequence (P30969 1-327): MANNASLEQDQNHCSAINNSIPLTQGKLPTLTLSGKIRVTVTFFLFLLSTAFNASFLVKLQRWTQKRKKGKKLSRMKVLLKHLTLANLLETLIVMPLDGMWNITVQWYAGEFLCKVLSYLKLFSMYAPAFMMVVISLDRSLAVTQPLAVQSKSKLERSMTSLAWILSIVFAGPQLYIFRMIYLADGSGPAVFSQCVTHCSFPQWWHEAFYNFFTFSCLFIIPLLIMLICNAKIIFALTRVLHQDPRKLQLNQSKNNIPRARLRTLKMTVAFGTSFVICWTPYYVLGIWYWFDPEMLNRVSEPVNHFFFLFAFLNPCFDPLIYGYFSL
As to the kind of experiment: in vitro test for LHRH antagonist potency (pA2). The note with it: negative logarithm of the antagonist concentration required to shift the response curve produced by the agonist leuprolide to two-fold higher concentration. It is filed as cell-based. As for the experimental part:
Representative compounds of the present invention were evaluated in an in vitro test for LHRH antagonist potency (pA2). The test employed the method detailed in F. Haviv, et al. J. Med. Chem., 32:2340-2344 (1989). The values of pA2 are the negative logarithms of the concentration of the particular antagonist test compound required to shift the response curve produced by the agonist leuprolide to two-fold higher concentration. (Leuprolide is the LHRH agonist having the structure 5-oxo-Pro^1 -His^2 -Trp^3 -Ser^4 -Tyr^5 -D-Leu^6 -Leu^7 -Arg^8 -Pro^9 -NHEt and is disclosed and claimed in U.S. Pat. No. 4,005,063.) Typically pA2 values of 9.5 or greater are indicative of good LHRH antagonist potency, with values of 10.0 or greater being preferred.
With `CC(C)C[C@H](NC(=O)[C@@H](CCCCNC(=O)c1cccnc1)NC(=O)[C@H](Cc1ccc(O)cc1)N(C)C(=O)[C@H](CO)NC(=O)[C@@H](Cc1cccnc1)NC(=O)[C@@H](Cc1ccc(Cl)cc1)NC(=O)[C@@H](Cc1ccc2ccccc2c1)NC(=O)CNC(=O)[C@H]1CCCO1)C(=O)N[C@@H](CCCCNC(C)C)C(=O)N1CCC[C@H]1C(=O)N[C@H](C)C(N)=O` [Example 5, N-(R) Tetrahydrofur-2-oyl-Gly-D2Nal-D4ClPhe-D3Pal-Ser-NMeTyr-DLys(Nicotinyl) -Le u-Lys(N-epsilon-Isopropyl)-Pro-DAlaNH2], the antagonist equilibrium constant (Kb) is 0.0214 nM.
Turning to `CC(C)C[C@H](NC(=O)[C@@H](CCCCNC(=O)c1cccnc1)NC(=O)[C@H](Cc1ccc(O)cc1)N(C)C(=O)[C@H](CO)NC(=O)[C@@H](Cc1cccnc1)NC(=O)[C@@H](Cc1ccc(Cl)cc1)NC(=O)[C@@H](Cc1ccc2ccccc2c1)NC(=O)CNC(=O)c1ccoc1)C(=O)N[C@@H](CCCCNC(C)C)C(=O)N1CCC[C@H]1C(=O)N[C@H](C)C(N)=O` [Example 2d, N-3Furoyl-Gly-D2Nal-D4ClPhe-D3Pal-Ser-NMeTyr-DLys(N-epsilon-Nicotinyl) -Leu-Lys(N-epsilon-Isopropyl)-Pro-DAlaNH2] (X6-G[d2Nal][dPhe(4-Cl)][d3Pal]S[NMeY][dK](Nicotinoyl)L[Lys(iPr)]P[dA]-NH2), the antagonist equilibrium constant (Kb) is 0.0126 nM.
`CC(C)C[C@H](NC(=O)[C@@H](CCCCNC(=O)c1cccnc1)NC(=O)[C@H](Cc1ccc(O)cc1)N(C)C(=O)[C@H](CO)NC(=O)[C@@H](Cc1cccnc1)NC(=O)[C@@H](Cc1ccc(Cl)cc1)NC(=O)[C@@H](Cc1ccc2ccccc2c1)NC(=O)[C@@H]1CCCO1)C(=O)N[C@@H](CCCCNC(C)C)C(=O)N1CCC[C@H]1C(=O)N[C@H](C)C(N)=O` [Example 67, N-(S)-Tetrahydrofur-2-oyl-D2Nal-D4ClPhe-D3Pal-Ser-NMeTyr-DLys(Nic)-Leu-Lys(Isp)-Pro-DAlaNH2] (X1-[d2Nal][dPhe(4-Cl)][d3Pal]S[NMeY][dK](Nicotinoyl)L[Lys(iPr)]P[dA]-NH2): the antagonist dissociation constant (Kb) was 0.0251 nM.
With `CC(C)C[C@H](NC(=O)[C@@H](CCCCNC(=O)c1cccnc1)NC(=O)[C@H](Cc1ccc(O)cc1)N(C)C(=O)[C@H](CO)NC(=O)[C@@H](Cc1cccnc1)NC(=O)[C@@H](Cc1ccc(Cl)cc1)NC(=O)[C@@H](Cc1ccc2ccccc2c1)NC(=O)CNC(=O)[C@@H]1CCCO1)C(=O)N[C@@H](CCCCNC(C)C)C(=O)N1CCC[C@H]1C(=O)N[C@H](C)C(N)=O` [Example 4, N-(S)-Tetrahydrofur-2-oyl-Gly-D2Nal-D4ClPhe-D3Pal-Ser-NMeTyr-DLys(Nicotinyl) -Leu-Lys(N-epsilon-Isopropyl)-Pro-DAlaNH2] the figure was 0.00794 nM; with `CC(C)C[C@H](NC(=O)[C@@H](CCCCNC(=O)c1cccnc1)NC(=O)[C@H](Cc1ccc(O)cc1)N(C)C(=O)[C@H](CO)NC(=O)[C@@H](Cc1cccnc1)NC(=O)[C@@H](Cc1ccc(Cl)cc1)NC(=O)[C@H](Cc1ccc2ccccc2c1)NC(=O)CNC(=O)[C@@H]1CCCO1)C(=O)N[C@@H](CCCCNC(C)C)C(=O)N1CCC[C@H]1C(=O)N[C@H](C)C(N)=O` [Example 81, (S)-2-Tetrahydrofuroyl-Gly-2Nal-D4ClPhe-D3Pal-Ser-NMeTyr-DLys(N-epsilon-Nicotinyl) -Leu-Lys(N-epsilon-Isopropyl)-Pro-DAlaNH2], 0.891 nM; with `CC(C)C[C@H](NC(=O)[C@@H](CCCCNC(=O)c1cccnc1)NC(=O)[C@H](Cc1ccc(O)cc1)N(C)C(=O)[C@H](CO)NC(=O)[C@@H](Cc1cccnc1)NC(=O)[C@@H](Cc1ccc(Cl)cc1)NC(=O)[C@@H](Cc1ccc2ccccc2c1)NC(=O)CNC(=O)c1ccncc1)C(=O)N[C@@H](CCCCNC(C)C)C(=O)N1CCC[C@H]1C(=O)N[C@H](C)C(N)=O` [Example 2g, N-Isonicotinyl-Gly-D2Nal-D4ClPhe-D3Pal-Ser-NMeTyr-DLys(N-epsilon-Nicotinyl) -Leu-Lys(N-epsilon-Isopropyl)-Pro-DAlaNH2] (Isonicotinoyl-G[d2Nal][dPhe(4-Cl)][d3Pal]S[NMeY][dK](Nicotinoyl)L[Lys(iPr)]P[dA]-NH2), 0.00708 nM.
On to `CC(C)C[C@H](NC(=O)[C@@H](CCCCNC(=O)c1cccnc1)NC(=O)[C@H](Cc1ccc(O)cc1)N(C)C(=O)[C@H](CO)NC(=O)[C@@H](Cc1cccnc1)NC(=O)[C@@H](Cc1ccc(Cl)cc1)NC(=O)CN(C)C(=O)CNC(=O)[C@@H]1CCCO1)C(=O)N[C@@H](CCCCNC(C)C)C(=O)N1CCC[C@H]1C(=O)N[C@H](C)C(N)=O` [Example 101, N (S)-2-Tetrahydrofuroyl-Gly-Sar-D4ClPhe-D3Pal-Ser-NMeTyr-DLys(Nic)-Leu-Lys(Isp)-Pro-DAlaNH2] (X1-G[Sar][dPhe(4-Cl)][d3Pal]S[NMeY][dK](Nicotinoyl)L[Lys(iPr)]P[dA]-NH2), for which the antagonist equilibrium constant (Kb) was 42.7 nM.
Under `CC(C)C[C@H](NC(=O)[C@@H](CCCCNC(=O)c1cccnc1)NC(=O)[C@H](Cc1ccc(O)cc1)N(C)C(=O)[C@H](CO)NC(=O)[C@@H](Cc1cccnc1)NC(=O)[C@@H](Cc1ccc(Cl)cc1)NC(=O)[C@@H](Cc1ccc2ccccc2c1)NC(=O)CNC(=O)C1=C[C@@H](O)[C@@H](O)[C@H](O)C1)C(=O)N[C@@H](CCCCNC(C)C)C(=O)N1CCC[C@H]1C(=O)N[C@H](C)C(N)=O` [Example 2a, N-Shikimyl-Gly-D2Nal-D4ClPhe-D3Pal-Ser-NMeTyr-DLys(N-epsilon-Nicotinyl) -Leu-Lys(N-epsilon-Isopropyl)-Pro-DAlaNH2] (Shikimoyl-G[d2Nal][dPhe(4-Cl)][d3Pal]S[NMeY][dK](Nicotinoyl)L[Lys(iPr)]P[dA]-NH2) stands 0.0282 nM; under `CC(C)C[C@H](NC(=O)[C@@H](CCCCNC(=O)C1=C[C@@H](O)[C@@H](O)[C@H](O)C1)NC(=O)[C@H](Cc1ccc(O)cc1)N(C)C(=O)[C@H](CO)NC(=O)[C@@H](Cc1cccnc1)NC(=O)[C@@H](Cc1ccc(Cl)cc1)NC(=O)[C@@H](Cc1ccc2ccccc2c1)NC(=O)[C@@H](CO)NC(=O)C1=C[C@@H](O)[C@@H](O)[C@H](O)C1)C(=O)N[C@@H](CCCNC(=N)N)C(=O)N1CCC[C@H]1C(=O)N[C@H](C)C(N)=O` [Example 14f, N-Shikimyl-DSer-D2Nal-D4ClPhe-D3Pal-Ser-NMeTyr-DLys(Shik)-Leu-Arg-Pro-DAlaNH2] (Shikimoyl-[dS][d2Nal][dPhe(4-Cl)][d3Pal]S[NMeY][dK](Shikimoyl)LRP[dA]-NH2), 0.0355 nM.
For the compound `CC(C)C[C@H](NC(=O)[C@@H](CCCCNC(N)=O)NC(=O)[C@H](Cc1ccc(O)cc1)N(C)C(=O)[C@H](CO)NC(=O)[C@@H](Cc1cccnc1)NC(=O)[C@@H](Cc1ccc(Cl)cc1)NC(=O)[C@@H](Cc1ccc2ccccc2c1)NC(=O)CNC(=O)[C@@H]1CCCO1)C(=O)N[C@@H](CCCCNC(C)C)C(=O)N1CCC[C@H]1C(=O)N[C@H](C)C(N)=O` [Example 92, N (S)-2-Tetrahydrofuroyl-Gly-D2Nal-D4ClPhe-D3Pal-Ser-NMeTyr-DHcit-Leu-Lys(N- epsilon-Isopropyl) -Pro-DAlaNH2] (X1-G[d2Nal][dPhe(4-Cl)][d3Pal]S[NMeY][d(hCit)]L[Lys(iPr)]P[dA]-NH2), the Kb was 0.0105 nM.
With `CC(C)C[C@H](NC(=O)[C@@H](CCCNC(N)=O)NC(=O)[C@H](Cc1ccc(O)cc1)N(C)C(=O)[C@H](CO)NC(=O)[C@@H](Cc1cccnc1)NC(=O)[C@@H](Cc1ccc(Cl)cc1)NC(=O)[C@@H](Cc1ccc2ccccc2c1)NC(=O)[C@@H]1CCCO1)C(=O)N[C@@H](CCCNC(=N)N)C(=O)N1CCC[C@H]1C(=O)N[C@H](C)C(N)=O` [Example 76, N-(S)-Tetrahydofur-2-oyl-D2Nal-D4ClPhe-D3Pal-Ser-NMeTyr-DCit-Leu-Arg-Pro-DAlaNH2] (X1-[d2Nal][dPhe(4-Cl)][d3Pal]S[NMeY][dCit]LRP[dA]-NH2), the Kb was 0.0355 nM.
As for `CC(C)C[C@@H](C(=O)N[C@@H](CCCNC(=N)N)C(=O)N1CCC[C@H]1C(=O)N[C@H](C)C(N)=O)N(C)C(=O)[C@@H](CCCCNC(=O)C1=C[C@@H](O)[C@@H](O)[C@H](O)C1)NC(=O)[C@H](Cc1ccc(O)cc1)N(C)C(=O)[C@H](CO)NC(=O)[C@@H](Cc1cccnc1)NC(=O)[C@@H](Cc1ccc(Cl)cc1)NC(=O)[C@@H](Cc1ccc2ccccc2c1)NC(=O)CNC(=O)c1cccnc1` [Example 23b, N-Nicotinyl-Gly-D2Nal-D4ClPhe-D3Pal-Ser-NMeTyr-DLys(Shikimyl)-NMeLeu-Arg-Pro-DAlaNH2] (Nicotinoyl-G[d2Nal][dPhe(4-Cl)][d3Pal]S[NMeY][dK](Shikimoyl)[NMeL]RP[dA]-NH2), the Kb was 0.0186 nM.
On to `CC(C)C[C@@H](C(=O)N[C@@H](CCCNC(=N)N)C(=O)N1CCC[C@H]1C(=O)N[C@H](C)C(N)=O)N(C)C(=O)[C@@H](CCCCNC(=O)C1=C[C@@H](O)[C@@H](O)[C@H](O)C1)NC(=O)[C@H](Cc1ccc(O)cc1)N(C)C(=O)[C@H](CO)NC(=O)[C@@H](Cc1cccnc1)NC(=O)[C@@H](Cc1ccc(Cl)cc1)NC(=O)[C@@H](Cc1ccc2ccccc2c1)NC(=O)CNC(=O)C1=C[C@@H](O)[C@@H](O)[C@H](O)C1` [Example 18b, N-Shikimyl-Gly-D2Nal-D4ClPhe-D3Pal-Ser-NMeTyr-DLys(Shik)-NMeLeu-Arg-Pro-DAlaNH2] (Shikimoyl-G[d2Nal][dPhe(4-Cl)][d3Pal]S[NMeY][dK](Shikimoyl)[NMeL]RP[dA]-NH2), for which the Kb was 0.00912 nM.
